Reference: patent US4656166A, “Antibiotic compounds derived from cephalosporins, process for their production and pharmaceutical compositions” (Sanofi, priority 1983, dated 1987)
≈ marks a conversion by molar mass, not a printed value. Read-outs that look alike come from different tables or passages of the source.

Assays:
Format in all cases: cell-based
[1] = test system: Serrtia liquefaciens SL/326 A; test: MIC on beta-lactamase producing strain Serratia liquefaciens SL/326 A (Table IV)
Experimental: (§1) To evaluate the stability of these products towards beta-lactamases, their MIC was determined on isogenic strains producing and not producing beta-lactamases.
(§2) The results are expressed in μg/ml in Table IV.

[2] = test system: Serrtia liquefaciens SL 1326 S; test: MIC on strain not producing beta-lactamase, Serratia liquefaciens SL 1326 S (Table IV); conditions: SL1326S, not producing beta-lactamases
Experimental: as §1, §2

Serratia RL 72 = test: MIC, in vitro dilution method, Serratia RL 72 (Table III); conditions: RL72
Summary of the method: (§3)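 MIC in μg/ml, taken as the minimum concentration giving bacteriostatic action in an in vitro dilution assay on Gram-negative bacteria.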

Escherichia coli SOL 90 = test: MIC, in vitro dilution method, Escherichia coli SOL 90 (Table III); conditions: SOL90; Escherichia coli SOL 90; dilution method; read-out: MIC
Summary of the method: as §3

[3] = test system: Proteus vulgaris RL 99 bis; test: MIC, in vitro dilution method, Proteus vulgaris RL 99 bis (Table III); conditions: RL99BIS
Summary of the method: as §3

Pseudomonas RL 112 = test: MIC, in vitro dilution method, Pseudomonas RL 112 (Table III); conditions: RL112
Summary of the method: as §3

Escherichia coli 255/L.7 = test: MIC on strain not producing beta-lactamase, Escherichia coli 255/L.7 (Table IV); conditions: Escherichia coli 255/L.7 *, not producing beta-lactamases; read-out: MIC
Experimental: as §1, §2

Escherichia coli 255 = test: MIC on beta-lactamase producing strain Escherichia coli 255 (Table IV); conditions: Escherichia coli 255, producing beta-lactamases; read-out: MIC
Experimental: as §1, §2

Citrobacter RL 49 = test: MIC, in vitro dilution method, Citrobacter RL 49 (Table III); conditions: RL49; Citrobacter RL 49; dilution method; read-out: MIC
Summary of the method: as §3

[4] = test system: Proteus vulgaris GN 76/C.1; test: MIC on beta-lactamase producing strain Proteus vulgaris GN 76/C.1 (Table IV); conditions: GN76
Experimental: as §1, §2

Klebsiella RO 30 = test: MIC, in vitro dilution method, Klebsiella RO 30 (Table III); conditions: RO30; Klebsiella RO 30; dilution method; read-out: MIC
Summary of the method: as §3

Enterobacter RO 154 = test: MIC, in vitro dilution method, Enterobacter RO 154 (Table III); conditions: RO154; Enterobacter RO 154; dilution method; read-out: MIC
Summary of the method: as §3

[5] = test system: Proteus vulgaris GN 76/C.1/3; test: MIC on strain not producing beta-lactamase, Proteus vulgaris GN 76/C.1/3 (Table IV); conditions: GN76, not producing beta-lactamases
Experimental: as §1, §2

[6] = Proteus vulgaris RL 99 bis, dilution method, read-out: MIC
[7] = Proteus vulgaris GN 76/C.1, producing beta-lactamases, read-out: MIC

Compound: CC(C)(ON=C(C(=O)NC1C(=O)N2C(C(=O)O)=C(CSC(=O)C3CCCNC3)C[S+]([O-])C12)c1csc(N)n1)C(=O)O (stereo not drawn) [compound 42074]
- MIC [1]: 0.25 µg/mL (≈ 0.398 µM)
- MIC [2]: 0.12 µg/mL (≈ 0.191 µM)
- MIC (Serratia RL 72): 4 µg/mL (≈ 6.36 µM)
- MIC (Escherichia coli SOL 90): 1 µg/mL (≈ 1.59 µM)
- MIC [3, 6]: 0.5 µg/mL (≈ 0.795 µM)
- MIC (Pseudomonas RL 112): 8 µg/mL (≈ 12.7 µM)
- MIC (Escherichia coli 255/L.7): 0.25 µg/mL (≈ 0.398 µM)
- MIC (Escherichia coli 255): 0.5 µg/mL (≈ 0.795 µM)
- MIC (Citrobacter RL 49): 0.5 µg/mL (≈ 0.795 µM)
- MIC [4, 7]: 0.5 µg/mL (≈ 0.795 µM)
- MIC (Klebsiella RO 30): 0.5 µg/mL (≈ 0.795 µM)
- MIC (Enterobacter RO 154): 8 µg/mL (≈ 12.7 µM)

Compound: CC(C)(ON=C(C(=O)NC1C(=O)N2C(C(=O)O)=C(CSC(=O)C3CCC(CN)CC3)C[S+]([O-])C12)c1csc(N)n1)C(=O)O (stereo not drawn) [compound 42118]
- MIC [1]: 0.25 µg/mL (≈ 0.381 µM)
- MIC [2]: 0.12 µg/mL (≈ 0.183 µM)
- MIC (Serratia RL 72): 4 µg/mL (≈ 6.09 µM)
- MIC (Escherichia coli SOL 90): 1 µg/mL (≈ 1.52 µM)
- MIC [3, 6]: 0.25 µg/mL (≈ 0.381 µM)
- MIC (Pseudomonas RL 112): 8 µg/mL (≈ 12.2 µM)
- MIC (Escherichia coli 255/L.7): 0.25 µg/mL (≈ 0.381 µM)
- MIC (Escherichia coli 255): 0.5 µg/mL (≈ 0.761 µM)
- MIC (Citrobacter RL 49): 0.5 µg/mL (≈ 0.761 µM)
- MIC [4, 7]: 0.5 µg/mL (≈ 0.761 µM)
- MIC (Klebsiella RO 30): 0.5 µg/mL (≈ 0.761 µM)
- MIC (Enterobacter RO 154): 16 µg/mL (≈ 24.4 µM)

Compound: CC(C)(ON=C(C(=O)NC1C(=O)N2C(C(=O)O)=C(CSC(=O)c3cccc(CN)c3)C[S+]([O-])C12)c1csc(N)n1)C(=O)O (stereo not drawn) [compound 42531]
- MIC [1]: 0.125 µg/mL (≈ 0.192 µM)
- MIC [2]: 0.0625 µg/mL (≈ 0.096 µM)
- MIC (Serratia RL 72): 0.5 µg/mL (≈ 0.768 µM)
- MIC (Escherichia coli SOL 90): 0.5 µg/mL (≈ 0.768 µM)
- MIC ([3]; Proteus vulgaris): ≤ 0.125 µg/mL
- MIC (Pseudomonas RL 112): 8 µg/mL (≈ 12.3 µM)
- MIC (Escherichia coli 255/L.7): 0.0625 µg/mL (≈ 0.096 µM)
- MIC (Escherichia coli 255): 0.125 µg/mL (≈ 0.192 µM)
- MIC (Citrobacter RL 49): 0.25 µg/mL (≈ 0.384 µM)
- MIC ([4]; Proteus vulgaris): 0.0625 µg/mL (≈ 0.096 µM)
- MIC (Klebsiella RO 30): 0.25 µg/mL (≈ 0.384 µM)
- MIC (Enterobacter RO 154): 0.5 µg/mL (≈ 0.768 µM)

Compound: CNCc1ccc(C(=O)SCC2=C(C(=O)O)N3C(=O)C(NC(=O)C(=NOC(C)(C)C(=O)O)c4csc(N)n4)C3[S+]([O-])C2)cc1 (stereo not drawn) [compound 42533]
- MIC [1]: 0.125 µg/mL (≈ 0.188 µM)
- MIC [2]: ≤ 0.0312 µg/mL
- MIC (Serratia RL 72): 1 µg/mL (≈ 1.5 µM)
- MIC (Escherichia coli SOL 90): 0.5 µg/mL (≈ 0.752 µM)
- MIC ([3]; Proteus vulgaris): ≤ 0.125 µg/mL
- MIC (Pseudomonas RL 112): 8 µg/mL (≈ 12 µM)
- MIC (Escherichia coli 255/L.7): 0.0625 µg/mL (≈ 0.094 µM)
- MIC (Escherichia coli 255): 0.125 µg/mL (≈ 0.188 µM)
- MIC (Citrobacter RL 49): 0.25 µg/mL (≈ 0.376 µM)
- MIC ([4]; Proteus vulgaris): 0.0625 µg/mL (≈ 0.094 µM)
- MIC [5]: 0.125 µg/mL (≈ 0.188 µM)
- MIC (Klebsiella RO 30): 0.25 µg/mL (≈ 0.376 µM)
- MIC (Enterobacter RO 154): 0.5 µg/mL (≈ 0.752 µM)

Compound: CC(C)(ON=C(C(=O)NC1C(=O)N2C(C(=O)O)=C(CSC(=O)c3ccc(NC(=O)CN)cc3)C[S+]([O-])C12)c1csc(N)n1)C(=O)O (stereo not drawn) [compound 42664]
- MIC [1]: 0.25 µg/mL (≈ 0.36 µM)
- MIC [2]: 0.0625 µg/mL (≈ 0.0901 µM)
- MIC (Serratia RL 72): 4 µg/mL (≈ 5.77 µM)
- MIC (Escherichia coli SOL 90): 1 µg/mL (≈ 1.44 µM)
- MIC (Pseudomonas RL 112): 8 µg/mL (≈ 11.5 µM)
- MIC (Escherichia coli 255/L.7): 0.0625 µg/mL (≈ 0.0901 µM)
- MIC (Escherichia coli 255): 0.25 µg/mL (≈ 0.36 µM)
- MIC [4, 7]: 0.125 µg/mL (≈ 0.18 µM)
- MIC [5]: 0.25 µg/mL (≈ 0.36 µM)
- MIC (Klebsiella RO 30): 0.5 µg/mL (≈ 0.721 µM)
- MIC (Enterobacter RO 154): 4 µg/mL (≈ 5.77 µM)
